From ChEMBL document CHEMBL3352214, “Studies on indolizines. Evaluation of their biological properties as microtubule-interacting agents and as melanoma targeting compounds” (Eur J Med Chem, 2015)

Key:
Ovis aries = species on record: Ovis aries; assay: Inhibition of sheep brain tubulin polymerization at 100 uM by fluorescence assay
A498 = assay: Growth inhibition of human A498 cells at 10^-5 M after 48 hrs by SRB assay; assay type: functional; settings: A498, 48 h, read-out: GI
SNB-75 = assay: Growth inhibition of human SNB75 cells at 10^-5 M after 48 hrs by SRB assay; assay type: functional; settings: SNB-75, 48 h, read-out: GI
[1] = Growth inhibition of human HOP92 cells at 10^-5 M after 48 hrs by SRB assay; assay type: functional; settings: HOP-92, 48 h, read-out: GI
[2] = Growth inhibition of human HCT15 cells at 10^-5 M after 48 hrs by SRB assay; assay type: functional; settings: HCT-15, 48 h, read-out: GI
CAKI-1 = assay: Growth inhibition of human Caki1 cells at 10^-5 M after 48 hrs by SRB assay; assay type: functional; settings: CAKI-1, 48 h, read-out: GI
[3] = Growth inhibition of human SF295 cells at 10^-5 M after 48 hrs by SRB assay; assay type: functional; settings: SF-295, 48 h, read-out: GI
T47D = assay: Growth inhibition of human T47D cells at 10^-5 M after 48 hrs by SRB assay; assay type: functional; settings: Homo sapiens, T47D, 48 h; read-out: GI
MDA-MB-435 = assay: Growth inhibition of human MDA-MB-435 cells at 10^-5 M after 48 hrs by SRB assay; assay type: functional; settings: MDA-MB-435, 48 h, read-out: GI
HL-60(TB) = assay: Growth inhibition of human HL-60(TB) cells at 10^-5 M after 48 hrs by SRB assay; assay type: functional; settings: HL-60, 48 h, read-out: GI
Malme-3M = assay: Growth inhibition of human MALME-3M cells at 10^-5 M after 48 hrs by SRB assay; assay type: functional; settings: read-out: GI
[4] = Growth inhibition of human MOLT4 cells at 10^-5 M after 48 hrs by SRB assay; assay type: functional; settings: MOLT-4, 48 h, read-out: GI
MCF7 = assay: Growth inhibition of human MCF7 cells at 10^-5 M after 48 hrs by SRB assay; assay type: functional; settings: MCF7, 48 h, read-out: GI
[5] = Growth inhibition of human HCT116 cells at 10^-5 M after 48 hrs by SRB assay; assay type: functional; settings: HCT-116, 48 h, read-out: GI
[6] = Growth inhibition of human PC3 cells at 10^-5 M after 48 hrs by SRB assay; assay type: functional; settings: PC-3, 48 h, read-out: GI
NCI-H522 = assay: Growth inhibition of human NCI-H522 cells at 10^-5 M after 48 hrs by SRB assay; assay type: functional; settings: NCI-H522, 48 h, read-out: GI
[7] = Growth inhibition of human EKVX cells at 10^-5 M after 48 hrs by SRB assay; assay type: functional; settings: read-out: GI

| SMILES | inhibition (Ovis aries) [%] | inhibition of growth at 10 µM (A498) [%] | inhibition of growth at 10 µM (SNB-75) [%] | inhibition of growth at 10 µM [1] [%] | inhibition of growth at 10 µM [2] [%] | inhibition of growth at 10 µM (CAKI-1) [%] | inhibition of growth at 10 µM [3] [%] | inhibition of growth at 10 µM (T47D) [%] | inhibition of growth at 10 µM (MDA-MB-435) [%] | inhibition of growth at 10 µM (HL-60(TB)) [%] | inhibition of growth at 10 µM (Malme-3M) [%] | inhibition of growth at 10 µM [4] [%] | inhibition of growth at 10 µM (MCF7) [%] | inhibition of growth at 10 µM [5] [%] | inhibition of growth at 10 µM [6] [%] | inhibition of growth at 10 µM (NCI-H522) [%] | inhibition of growth at 10 µM [7] [%] |
| --- | --- | --- | --- | --- | --- | --- | --- | --- | --- | --- | --- | --- | --- | --- | --- | --- | --- |
| CCOC(=O)c1c(C(=O)OCC)c2cc(C)ccn2c1C(=O)c1cc(OC)c(OC)c(OC)c1 | 39 | – | – | – | – | – | – | – | – | – | – | – | – | – | – | – | – |
| CCOC(=O)c1c(C(=O)OCC)c2cc(N(C)C)ccn2c1C(=O)c1cc(OC)c(OC)c(OC)c1 | 26 | – | – | – | – | – | – | – | – | – | – | – | – | – | – | – | – |
| COc1cc(C(=O)c2cc(C#N)c3cc(C#N)ccn23)cc(OC)c1OC | 46 | 10 | 7 | 0 | 21 | 3 | 4 | 6 | 81 | 20 | 26 | 2 | 15 | 2 | 8 | 12 | – |
| CCOC(=O)c1cc(C(=O)c2ccc(OC)cc2)n2cc(C)cc(C)c12 | 32 | 30 | 46 | 11 | 14 | 24 | 35 | 13 | 11 | 83 | 28 | – | 17 | 23 | 20 | 43 | 29 |
| COc1cc(C(=O)c2cc(C(=O)O)c3cccc(C)n23)cc(OC)c1OC | 28 | 2 | 9 | – | 7 | 0 | 0 | 0 | 0 | 3 | 0 | 7 | 12 | 0 | 5 | 15 | – |
| COC(=O)c1c(C(=O)OC)c2cccc(C)n2c1C(=O)c1cc(OC)c(OC)c(OC)c1 | 32 | – | – | – | – | – | – | – | – | – | – | – | – | – | – | – | – |
| COC(=O)c1c(C(=O)OC)c2cc(OC)ccn2c1C(=O)c1cc(OC)c(OC)c(OC)c1 | 16 | 0 | 0 | – | 13 | 2 | 11 | 6 | 4 | 1 | 0 | 0 | 0 | 2 | – | 4 | 7 |
| COC(=O)c1c(C(=O)OC)c2cc(N(C)C)ccn2c1C(=O)c1ccc(OC)c(OC)c1 | 9 | 27 | 1 | 18 | 6 | 10 | 1 | 0 | 0 | 12 | 0 | 0 | 0 | 0 | 11 | 3 | 0 |
| COC(=O)c1c(C(=O)OC)c2cc(N(C)C)ccn2c1C(=O)c1cc(OC)c(OC)c(OC)c1 | 15 | 18 | 9 | 11 | 7 | 19 | 11 | 5 | 4 | 26 | 0 | 0 | 0 | 0 | 2 | 3 | 0 |
| COC(=O)c1c2c(O)nnc(-c3ccc(OC)cc3)c2n2cc(C)cc(C)c12 | 58 | 45 | 19 | 21 | 0 | 15 | 2 | – | 0 | 7 | 0 | 15 | 6 | 2 | 24 | 22 | – |
| CCOC(=O)c1cc(C(=O)c2cc(OC)c(OC)c(OC)c2)n2cc(C)cc(C)c12 | 3 | – | 11 | 29 | 0 | 13 | 3 | 18 | 4 | 0 | 25 | 0 | 4 | 45 | 2 | 8 | 6 |
| CCOC(=O)c1cc(C(=O)c2cc(OC)c(OC)c(OC)c2)n2ccc(C#N)cc12 | 13 | – | – | – | – | – | – | – | – | – | – | – | – | – | – | – | – |
| COC(=O)c1c(C(=O)OC)c2cc(OC)ccn2c1C(=O)c1ccc(OC)cc1 | 34 | 7 | 0 | 0 | 0 | 18 | 10 | 2 | 2 | 6 | 0 | 0 | 0 | 0 | 19 | – | 13 |
| CCOC(=O)c1c2c(O)nnc(-c3cc(OC)c(OC)c(OC)c3)c2n2cc(C)cc(C)c12 | 43 | 15 | 5 | 0 | 0 | 0 | 0 | 0 | 0 | 0 | 0 | 0 | 0 | 6 | 0 | 1 | – |
| COC(=O)c1c(C(=O)OC)c2c(C)cc(C)cn2c1C(=O)c1cc(OC)c(OC)c(OC)c1 | 36 | – | – | – | – | – | – | – | – | – | – | – | – | – | – | – | – |
| CCOC(=O)c1cc(C(=O)c2cc(OC)c(OC)c(OC)c2)n2ccc(N(C)C)cc12 | 36 | 11 | 0 | – | 0 | 10 | 0 | 5 | 5 | 8 | 0 | 7 | 7 | 0 | 12 | 0 | 9 |
| CCOC(=O)c1cc(C(=O)c2cc(OC)c(OC)c(OC)c2)n2ccc3ccccc3c12 | 41 | – | – | – | – | – | – | – | – | – | – | – | – | – | – | – | – |
| COc1cc(C(=O)c2cc(C#N)c3c(C#N)cccn23)cc(OC)c1OC | 39 | 0 | 69 | 8 | 23 | 6 | – | 10 | 54 | 7 | 28 | 0 | 29 | 11 | 12 | 0 | – |
